Reference: ChEMBL document CHEMBL4507273 (2021)
pKi: −log10 of the molar value.

Legend:
[1] = target: Fibroblast growth factor receptor 2 (Homo sapiens) (UniProt P21802); details: Compound concentration 1000.0 nM
[2] = target: Homeodomain-interacting protein kinase 1 (Homo sapiens) (UniProt Q86Z02); details: Compound concentration 1000.0 nM
[3] = target: Alpha-1B adrenergic receptor (Homo sapiens) (UniProt P35368); details: Compound concentration 10.0 uM
[4] = system: Receptor-type tyrosine-protein kinase FLT3 (Homo sapiens), P36888 [D835H]; details: Compound concentration 1000.0 nM
[5] = target: Serine/threonine-protein kinase 17A (Homo sapiens) (UniProt Q9UEE5); details: Compound concentration 1000.0 nM
[6] = target: 5-hydroxytryptamine receptor 3A (Homo sapiens) (UniProt P46098); details: Compound concentration 10.0 uM
[7] = target: Mitogen-activated protein kinase kinase kinase kinase 4 (Homo sapiens) (UniProt O95819); details: Compound concentration 1000.0 nM
[8] = target: Proto-oncogene tyrosine-protein kinase receptor Ret (Homo sapiens) (UniProt P07949); details: Compound concentration 1000.0 nM
[9] = target: Ribosomal protein S6 kinase alpha-2 (Homo sapiens) (UniProt Q15349); details: Compound concentration 1000.0 nM
[10] = target: Serine/threonine-protein kinase N2 (Homo sapiens) (UniProt Q16513); details: Compound concentration 1000.0 nM
[11] = target: Phosphorylase b kinase regulatory subunit alpha, liver isoform (Homo sapiens) (UniProt P46019); details: Compound concentration 1000.0 nM
Sequence of Phosphorylase b kinase regulatory subunit alpha, liver isoform (Homo sapiens) (P46019 whole entry, canonical isoform): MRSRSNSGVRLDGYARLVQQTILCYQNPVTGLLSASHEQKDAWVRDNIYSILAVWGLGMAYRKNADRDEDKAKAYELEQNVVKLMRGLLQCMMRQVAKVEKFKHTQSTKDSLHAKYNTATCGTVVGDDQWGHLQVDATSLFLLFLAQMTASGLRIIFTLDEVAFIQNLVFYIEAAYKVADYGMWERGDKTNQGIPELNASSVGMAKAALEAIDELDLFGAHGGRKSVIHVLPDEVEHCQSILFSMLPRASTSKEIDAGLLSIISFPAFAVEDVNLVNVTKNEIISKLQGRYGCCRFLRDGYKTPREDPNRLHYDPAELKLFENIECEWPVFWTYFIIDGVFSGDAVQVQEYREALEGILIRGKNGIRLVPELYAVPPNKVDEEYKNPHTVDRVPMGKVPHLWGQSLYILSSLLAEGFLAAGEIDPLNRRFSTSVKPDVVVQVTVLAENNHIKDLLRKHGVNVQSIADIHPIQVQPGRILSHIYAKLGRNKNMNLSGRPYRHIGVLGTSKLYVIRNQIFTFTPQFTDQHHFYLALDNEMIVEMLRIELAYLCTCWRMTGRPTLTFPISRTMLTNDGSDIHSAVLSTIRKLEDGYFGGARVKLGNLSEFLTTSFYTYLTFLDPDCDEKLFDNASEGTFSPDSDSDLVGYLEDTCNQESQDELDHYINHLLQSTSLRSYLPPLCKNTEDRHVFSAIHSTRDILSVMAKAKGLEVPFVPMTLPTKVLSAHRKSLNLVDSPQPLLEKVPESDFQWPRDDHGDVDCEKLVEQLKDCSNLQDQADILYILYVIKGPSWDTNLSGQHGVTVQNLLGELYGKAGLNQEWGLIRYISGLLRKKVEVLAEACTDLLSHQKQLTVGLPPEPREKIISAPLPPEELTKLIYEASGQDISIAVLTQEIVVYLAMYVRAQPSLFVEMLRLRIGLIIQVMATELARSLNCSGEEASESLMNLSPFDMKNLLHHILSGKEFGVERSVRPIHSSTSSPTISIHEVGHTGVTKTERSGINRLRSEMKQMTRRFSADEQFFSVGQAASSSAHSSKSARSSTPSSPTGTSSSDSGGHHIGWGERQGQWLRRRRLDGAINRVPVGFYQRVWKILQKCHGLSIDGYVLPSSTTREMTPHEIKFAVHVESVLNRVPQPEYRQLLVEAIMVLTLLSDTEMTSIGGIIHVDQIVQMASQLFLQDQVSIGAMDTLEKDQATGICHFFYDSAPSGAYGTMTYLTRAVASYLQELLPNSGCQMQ

[12] = target: Mitogen-activated protein kinase kinase kinase 2 (Homo sapiens) (UniProt Q9Y2U5); details: Compound concentration 1000.0 nM
[13] = target: Mitogen-activated protein kinase kinase kinase 9 (Homo sapiens) (UniProt P80192); details: Compound concentration 1000.0 nM
[14] = target: Macrophage colony-stimulating factor 1 receptor (Homo sapiens) (UniProt P07333); details: Compound concentration 1000.0 nM
[15] = system: Epidermal growth factor receptor (Homo sapiens), P00533 [G719S]; details: Compound concentration 1000.0 nM
[16] = target: Cyclin-dependent kinase 7 (Homo sapiens) (UniProt P50613); details: Compound concentration 1000.0 nM
[17] = target: RAF proto-oncogene serine/threonine-protein kinase (Homo sapiens) (UniProt P04049); details: Compound concentration 1000.0 nM
[18] = target: Casein kinase II subunit alpha' (Homo sapiens) (UniProt P19784); details: Compound concentration 1000.0 nM
[19] = target: Serine/threonine-protein kinase 25 (Homo sapiens) (UniProt O00506); details: Compound concentration 1000.0 nM
[20] = target: Testis-specific serine/threonine-protein kinase 3 (Homo sapiens) (UniProt Q96PN8); details: Compound concentration 1000.0 nM
[21] = target: Non-receptor tyrosine-protein kinase TNK1 (Homo sapiens) (UniProt Q13470); details: Compound concentration 1000.0 nM
[22] = target: Ephrin type-A receptor 8 (Homo sapiens) (UniProt P29322); details: Compound concentration 1000.0 nM
[23] = target: Tyrosine-protein kinase JAK1 (Homo sapiens) (UniProt P23458); details: Compound concentration 1000.0 nM
[24] = target: Muscarinic acetylcholine receptor M5 (Homo sapiens) (UniProt P08912); details: Compound concentration 10.0 uM
Sequence of Muscarinic acetylcholine receptor M5 (Homo sapiens) (P08912 whole entry): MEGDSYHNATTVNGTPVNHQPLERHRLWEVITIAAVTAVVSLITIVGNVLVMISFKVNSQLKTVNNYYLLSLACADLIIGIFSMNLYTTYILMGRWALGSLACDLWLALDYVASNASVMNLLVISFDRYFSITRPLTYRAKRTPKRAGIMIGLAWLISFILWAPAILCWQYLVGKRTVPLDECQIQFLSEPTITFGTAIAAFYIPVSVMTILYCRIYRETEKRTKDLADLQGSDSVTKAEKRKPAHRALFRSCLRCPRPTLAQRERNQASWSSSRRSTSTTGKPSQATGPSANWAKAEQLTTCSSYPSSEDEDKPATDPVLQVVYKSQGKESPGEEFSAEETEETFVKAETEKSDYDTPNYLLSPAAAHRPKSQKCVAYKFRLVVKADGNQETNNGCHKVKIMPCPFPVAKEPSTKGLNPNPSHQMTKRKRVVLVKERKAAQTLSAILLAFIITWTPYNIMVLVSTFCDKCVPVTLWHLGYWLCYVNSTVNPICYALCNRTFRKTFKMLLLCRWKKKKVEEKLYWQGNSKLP

[25] = target: Mu-type opioid receptor (Homo sapiens, UniProt P35372); details: Compound concentration 10.0 uM
Sequence of Mu-type opioid receptor (P35372 whole entry): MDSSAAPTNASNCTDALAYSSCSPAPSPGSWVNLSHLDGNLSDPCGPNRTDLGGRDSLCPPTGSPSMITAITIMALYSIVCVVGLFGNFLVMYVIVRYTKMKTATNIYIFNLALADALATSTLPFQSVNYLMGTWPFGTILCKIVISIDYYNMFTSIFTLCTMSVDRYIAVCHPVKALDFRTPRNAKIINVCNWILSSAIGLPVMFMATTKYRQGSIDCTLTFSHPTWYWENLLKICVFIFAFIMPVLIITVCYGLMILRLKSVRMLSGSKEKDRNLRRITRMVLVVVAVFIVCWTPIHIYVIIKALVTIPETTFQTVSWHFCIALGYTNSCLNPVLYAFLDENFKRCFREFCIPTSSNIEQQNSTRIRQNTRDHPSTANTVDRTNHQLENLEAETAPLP

[26] = target: GABA-A receptor; anion channel (Rattus norvegicus) (UniProt O09028+P15431+P18506+P18508+P19969+P20236+P23574+P23576+P28471+P28473+P30191+P62813+P63079+P63138+Q91ZM7+Q9ES14); details: Compound concentration 10.0 uM
[27] = system: Tyrosine-protein kinase ABL1 (Homo sapiens), P00519 [F317L]; details: Compound concentration 1000.0 nM
[28] = target: Serine/threonine-protein kinase WNK2 (Homo sapiens) (UniProt Q9Y3S1); details: Compound concentration 1000.0 nM
Sequence of Serine/threonine-protein kinase WNK2 (Homo sapiens) (Q9Y3S1 whole entry): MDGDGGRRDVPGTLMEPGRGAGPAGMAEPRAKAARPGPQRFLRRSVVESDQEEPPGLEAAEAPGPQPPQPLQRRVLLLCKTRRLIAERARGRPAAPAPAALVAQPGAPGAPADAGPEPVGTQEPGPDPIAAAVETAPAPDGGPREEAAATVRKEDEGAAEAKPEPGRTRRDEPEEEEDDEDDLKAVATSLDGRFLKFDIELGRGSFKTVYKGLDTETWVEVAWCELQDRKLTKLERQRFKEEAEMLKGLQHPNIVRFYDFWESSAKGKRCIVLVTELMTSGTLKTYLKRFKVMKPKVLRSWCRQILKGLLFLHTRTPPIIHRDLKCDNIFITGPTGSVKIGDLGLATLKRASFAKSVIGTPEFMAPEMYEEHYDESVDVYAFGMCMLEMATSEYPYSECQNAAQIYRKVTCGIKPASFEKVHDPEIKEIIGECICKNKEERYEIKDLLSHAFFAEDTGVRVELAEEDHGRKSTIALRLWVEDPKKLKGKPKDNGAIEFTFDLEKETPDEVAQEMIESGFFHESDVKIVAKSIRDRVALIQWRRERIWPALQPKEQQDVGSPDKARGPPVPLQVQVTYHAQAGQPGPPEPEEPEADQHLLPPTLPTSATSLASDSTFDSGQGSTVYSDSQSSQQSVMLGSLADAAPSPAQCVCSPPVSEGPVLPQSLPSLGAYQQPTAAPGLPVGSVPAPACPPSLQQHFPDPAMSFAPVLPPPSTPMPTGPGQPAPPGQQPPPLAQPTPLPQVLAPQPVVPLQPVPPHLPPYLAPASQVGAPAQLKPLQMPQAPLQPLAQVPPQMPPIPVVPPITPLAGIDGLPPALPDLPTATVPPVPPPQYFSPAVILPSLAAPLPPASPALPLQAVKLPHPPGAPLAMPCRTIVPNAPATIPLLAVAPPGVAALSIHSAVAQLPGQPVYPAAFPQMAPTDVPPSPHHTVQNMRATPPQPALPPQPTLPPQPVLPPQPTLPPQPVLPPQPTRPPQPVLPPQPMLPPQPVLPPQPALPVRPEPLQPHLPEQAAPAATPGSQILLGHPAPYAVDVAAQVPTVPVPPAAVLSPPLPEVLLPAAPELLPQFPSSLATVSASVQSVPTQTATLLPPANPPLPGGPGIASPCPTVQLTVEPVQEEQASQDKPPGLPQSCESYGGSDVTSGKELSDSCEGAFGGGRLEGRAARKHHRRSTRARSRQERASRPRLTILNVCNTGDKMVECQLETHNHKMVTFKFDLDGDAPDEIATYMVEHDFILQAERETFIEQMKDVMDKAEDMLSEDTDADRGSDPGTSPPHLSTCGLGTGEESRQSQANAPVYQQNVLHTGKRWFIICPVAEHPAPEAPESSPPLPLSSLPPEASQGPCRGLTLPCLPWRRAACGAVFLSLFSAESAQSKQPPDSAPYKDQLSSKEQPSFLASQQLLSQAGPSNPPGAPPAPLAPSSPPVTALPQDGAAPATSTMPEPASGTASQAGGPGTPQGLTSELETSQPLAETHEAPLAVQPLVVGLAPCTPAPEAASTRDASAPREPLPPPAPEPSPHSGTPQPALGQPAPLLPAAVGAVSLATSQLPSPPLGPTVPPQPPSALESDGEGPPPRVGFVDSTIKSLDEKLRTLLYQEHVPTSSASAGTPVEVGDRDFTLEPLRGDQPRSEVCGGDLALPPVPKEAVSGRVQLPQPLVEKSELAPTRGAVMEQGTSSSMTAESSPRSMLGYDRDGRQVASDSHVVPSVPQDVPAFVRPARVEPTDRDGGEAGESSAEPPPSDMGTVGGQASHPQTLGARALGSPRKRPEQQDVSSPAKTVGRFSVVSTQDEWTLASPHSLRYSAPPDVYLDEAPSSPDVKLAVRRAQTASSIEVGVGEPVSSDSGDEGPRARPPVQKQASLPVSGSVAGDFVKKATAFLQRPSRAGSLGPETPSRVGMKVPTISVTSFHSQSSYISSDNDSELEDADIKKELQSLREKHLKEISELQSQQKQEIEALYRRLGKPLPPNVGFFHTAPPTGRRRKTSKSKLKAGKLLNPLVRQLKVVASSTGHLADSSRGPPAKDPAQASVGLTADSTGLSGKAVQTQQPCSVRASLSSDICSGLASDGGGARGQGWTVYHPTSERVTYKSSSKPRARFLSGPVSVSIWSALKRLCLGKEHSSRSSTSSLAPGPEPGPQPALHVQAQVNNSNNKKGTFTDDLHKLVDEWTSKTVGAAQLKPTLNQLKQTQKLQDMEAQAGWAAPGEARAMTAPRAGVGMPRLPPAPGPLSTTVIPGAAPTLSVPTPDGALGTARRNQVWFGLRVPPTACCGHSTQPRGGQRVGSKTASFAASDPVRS

[29] = target: Rhodopsin kinase GRK1 (Homo sapiens) (UniProt Q15835); details: Compound concentration 1000.0 nM
[30] = target: Serine/threonine-protein kinase TAO3 (Homo sapiens) (UniProt Q9H2K8); details: Compound concentration 1000.0 nM
[31] = target: 5-hydroxytryptamine receptor 1B (Homo sapiens, UniProt P28222); test: GPCRScan assay: inhibition of 5-HT1B; design: radioligand conc. used [nm] 0.6 – 1.5, parental cells stable HEK; details: for pKi: read-out: Ki
Sequence of 5-hydroxytryptamine receptor 1B (P28222 whole entry): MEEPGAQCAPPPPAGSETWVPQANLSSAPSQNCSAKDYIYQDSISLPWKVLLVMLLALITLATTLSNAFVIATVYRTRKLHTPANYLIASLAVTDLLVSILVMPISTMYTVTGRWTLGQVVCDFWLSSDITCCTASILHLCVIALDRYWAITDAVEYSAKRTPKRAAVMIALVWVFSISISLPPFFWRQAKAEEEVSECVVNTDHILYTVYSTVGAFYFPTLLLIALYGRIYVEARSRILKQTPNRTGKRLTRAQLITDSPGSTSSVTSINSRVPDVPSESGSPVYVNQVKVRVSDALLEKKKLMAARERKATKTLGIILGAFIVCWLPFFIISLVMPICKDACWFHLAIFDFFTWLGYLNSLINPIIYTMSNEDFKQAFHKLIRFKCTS

[32] = target: Serine/threonine-protein kinase DCLK3 (Homo sapiens) (UniProt Q9C098); details: Compound concentration 1000.0 nM
[33] = target: Inhibitor of nuclear factor kappa-B kinase subunit epsilon (Homo sapiens) (UniProt Q14164); details: Compound concentration 1000.0 nM
[34] = target: T1, 5-hydroxytryptamine receptor 2C (Homo sapiens) (UniProt P28335); details: Compound concentration 10.0 uM
T1 sequence (whole entry): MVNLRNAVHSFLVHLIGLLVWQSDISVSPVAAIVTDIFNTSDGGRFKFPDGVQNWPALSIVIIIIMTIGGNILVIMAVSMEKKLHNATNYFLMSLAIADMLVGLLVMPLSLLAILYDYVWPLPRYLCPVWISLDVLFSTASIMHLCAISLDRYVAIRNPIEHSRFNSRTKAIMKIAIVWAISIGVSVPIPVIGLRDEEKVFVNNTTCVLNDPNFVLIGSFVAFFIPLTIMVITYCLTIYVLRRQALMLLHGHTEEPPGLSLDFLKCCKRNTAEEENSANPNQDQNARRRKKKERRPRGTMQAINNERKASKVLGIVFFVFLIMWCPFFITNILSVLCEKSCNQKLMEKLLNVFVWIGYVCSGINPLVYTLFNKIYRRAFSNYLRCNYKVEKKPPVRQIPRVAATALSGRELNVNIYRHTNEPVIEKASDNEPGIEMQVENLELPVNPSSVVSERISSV

[35] = target: Activated CDC42 kinase 1 (Homo sapiens) (UniProt Q07912); details: Compound concentration 1000.0 nM
[36] = target: Dual specificity protein kinase CLK3 (Homo sapiens) (UniProt P49761); details: Compound concentration 1000.0 nM
[37] = target: Tyrosine-protein kinase Srms (Homo sapiens) (UniProt Q9H3Y6); details: Compound concentration 1000.0 nM
[38] = target: Wee1-like protein kinase (Homo sapiens) (UniProt P30291); details: Compound concentration 1000.0 nM

Compound	residual activity [1] [%]	residual activity [2] [%]	inhibition [3] [%]	residual activity [4] [%]	residual activity [5] [%]	inhibition [6] [%]	residual activity [7] [%]	residual activity [8] [%]	residual activity [9] [%]	residual activity [10] [%]	residual activity [11] [%]	residual activity [12] [%]	residual activity [13] [%]	residual activity [14] [%]	residual activity [15] [%]	residual activity [16] [%]	residual activity [17] [%]	residual activity [18] [%]	residual activity [19] [%]	residual activity [20] [%]	further results
CNCc1ccccc1-c1csc([C@H](C)Nc2nc(C)nc3cc(OC)c(OC)cc23)c1 [BAY-294]	94	79	94.7	74	100	16	97	100	100	90	100	100	100	91	84	61	65	100	100	100	residual activity [21]: 85%; residual activity [22]: 100%; residual activity [23]: 89%; inhibition [24]: 54.1%; inhibition [25]: 67.3%; inhibition [26]: 9.67%; residual activity [27]: 100%; residual activity [28]: 99%; residual activity [29]: 100%; residual activity [30]: 75%; pKi [31]: 5.76; residual activity [32]: 100%; residual activity [33]: 85%; inhibition [34]: 71.8%; residual activity [35]: 100%; residual activity [36]: 100%; residual activity [37]: 88%; residual activity [38]: 100%
CNCc1ccccc1-c1csc([C@@H](C)Nc2nc(C)nc3cc(OC)c(OC)cc23)c1 [BAY-293]	85	78	85.8	55	100	17.1	100	86	100	89	100	87	98	91	69	63	70	100	89	100	residual activity [21]: 64%; residual activity [22]: 100%; residual activity [23]: 100%; inhibition [24]: 64.8%; inhibition [25]: 46.8%; inhibition [26]: 12.3%; residual activity [27]: 100%; residual activity [28]: 72%; residual activity [29]: 99%; residual activity [30]: 83%; pKi [31]: 5.85; Ki ([31]; read-out: pKi (converted)): 1350 nM; residual activity [32]: 95%; residual activity [33]: 71%; inhibition [34]: 73.7%; residual activity [35]: 100%; residual activity [36]: 100%; residual activity [37]: 92%; residual activity [38]: 100%
